Like-named read-outs stand apart in the source and are kept apart here.
Legend:
[1] = tested on: novel object recognition; details: 3 mg/kg THC, 24 hours after dosing; cited from earlier work
[2] = tested on: hippocampal transcriptome; assay: RNA-Seq of hippocampus after acute THC versus vehicle; type: in vivo, mouse; details: for number of transcripts differentially expressed in the HIPP: 2 hours, 5% FDR
[3] = tested on: spatial working memory; details: male C57 mice, 3 mg/kg, tested 30 minutes later; cited from earlier work
[4] = tested on: gene expression; details: microarray, out of 24,500 possible genes, acute THC; cited from earlier work
[5] = tested on: CD1 female mouse brain lipidome; assay: Targeted brain lipidomics; type: in vivo; details: for magnitude class of change in PGE2 and PGF2α, HIPP: p < 0.05
[6] = PND 50, 2 hours after 3 mg/kg THC i.p.
[7] = adult, 2 hours after 3 mg/kg THC i.p.
[8] = PND 35, 2 hours after 3 mg/kg THC i.p.
[9] = adult, THC vs vehicle, significant

Q: For 11-OH-THC, which “rank of HIPP levels relative to other brain regions” value [6] is on record?
A: highest

Q: What about the “rank of HIPP levels relative to other brain regions” value [7] of the same compound?
A: 5th

Q: Which “rank of HIPP levels relative to other brain regions” value [8] does the source give for (±)-11-nor-9-carboxyTHC here?
A: highest

Q: What does the source list for `CCCCCc1cc(O)c2c(c1)OC(C)(C)[C@@H]1CCC(C)=C[C@@H]21` [THC, Δ^9-tetrahydrocannabinol]?
A: effect on novel object recognition [1]: impaired; effect on FKBP5 message ([2]; HIPP of both age groups, 3 mg/kg, larger magnitude in adult): upregulated; effect on Cdkn1a transcript ([2]; HIPP of mice from both age groups): upregulated; number of genes affected in the same direction regardless of age ([2]; HIPP, PND 35 and adult): 31; number of shared transcripts significantly downregulated ([2]; HIPP, PND 35 and adult): 11; number of transcripts downregulated in the HIPP ([2]; PND 35): 48; number of transcripts upregulated in the HIPP ([2]; PND 35): 41; number of transcripts differentially expressed in the HIPP ([2]; PND 35, 3 mg/kg THC): 89; log2 fold change of Plekhf1 (largest upregulation) ([2]; PND 35 HIPP): 0.84; log2 fold change of kdr (most robust downregulation) ([2]; PND 35 HIPP): −0.73; number of transcript changes unique to this age group ([2]; PND 35 HIPP): 58; number of uniquely changed transcripts downregulated ([2]; PND 35 HIPP): 37; number of decreases in transcript expression in the HIPP ([2]; adult): 80; number of increases in transcript expression in the HIPP ([2]; adult): 109; log2 fold change of Plekhf1 (largest upregulation) ([2]; adult HIPP): 1.36; log2 fold change of cldn5 (most robust downregulation) ([2]; adult HIPP): −0.80; number of transcript changes unique to this age group ([2]; adult HIPP): 158; number of unique transcript changes that were decreases ([2]; adult HIPP): 69; number of unique transcript changes that were increases ([2]; adult HIPP): 89; effect on mRNA encoding the receptor for VEGF, Kdr ([2]; adult and PND 35 HIPP): significantly lowered; number of transcripts differentially expressed in the HIPP ([2]; adult, 3 mg/kg THC): 189; effect on spatial working memory in the Morris water maze [3]: significantly disrupted spatial working memory; number of genes with altered expression [4]: 28; change in 2-AG in HYP ([5]; PND 35): decrease; change in N-oleoyl glycine in HYP ([5]; PND 35): increase; effect on AEA levels ([5]; PND 35): unaffected; number of brain areas with reduced 2-AG levels ([5]; PND 35): 2; number of decreases in lipid concentration, all 8 brain areas ([5]; PND 35): 10; number of increases in lipid concentration, all 8 brain areas ([5]; PND 35): 23; number of lipids decreased in HIPP ([5]; PND 35): 1; number of lipids increased in HIPP ([5]; PND 35): 6; magnitude of change of PGE2 in the HIPP (THC mean divided by vehicle mean) ([5]; PND 35, 3 mg/kg i.p., 2 hours): 1.13; magnitude class of change in PGE2 and PGF2α, HIPP ([5]; PND 35, THC vs vehicle): 1 up arrow; magnitude class of change in A-Taur, THAL ([5]; PND 35, THC vs vehicle, significant): 1 up arrow; number of significant changes in lipid concentrations across all 8 brain areas ([5]; PND 35, out of 656 possible changes): 33; average level of PGE2 in the HIPP ([5]; PND 35 THC mice, 3 mg/kg i.p., 2 hours): 6.68×10^−10 moles per gram; change in levels of PGE2 and PGF2α in the HIPP ([5]; PND 35 mouse): increase; change in AEA and its structural analogs the NAEs in STR ([5]; PND 50): significantly increased; change in PGF2α in HYP (only change in that region) ([5]; PND 50): increase; number of brain regions with reduced 2-AG levels ([5]; PND 50): 4; number of brain regions with reduced AEA levels ([5]; PND 50): 2; number of decreases in lipid concentration, all 8 brain areas ([5]; PND 50): 28; number of increases in lipid concentration, all 8 brain areas ([5]; PND 50): 30; number of lipids decreased in CER ([5]; PND 50): 8; number of lipids increased in CER ([5]; PND 50): 5; number of lipids significantly modified, all 8 brain areas ([5]; PND 50): 58; change in levels of PGE2 and PGF2α in the HIPP ([5]; PND 50 mouse): no change; change in NAEs in all brain areas except the STR and CTX ([5]; adult): significantly decreased; change in levels of PGE2 and PGF2α in the HIPP ([5]; adult): decrease; number of brain regions with reduced 2-AG levels ([5]; adult): 4; number of brain regions with reduced AEA levels ([5]; adult): 6; number of changes in lipid levels in CER (all decreases) ([5]; adult): 14; number of decreases in lipid concentration, all 8 brain regions ([5]; adult): 99; number of increases in lipid concentration, all 8 brain regions ([5]; adult): 17; number of lipids affected in STR ([5]; adult): 3; number of lipids altered in STEM ([5]; adult): 28; number of lipids changing in concentration across the 8 brain regions ([5]; adult): 116; number of lipids decreased in STEM ([5]; adult): 24; number of lipids decreased in STR ([5]; adult): 2; number of lipids increased in STEM ([5]; adult): 4; number of lipids increased in STR ([5]; adult): 1; mean level of AEA in the HIPP ([5]; adult THC mice, 3 mg/kg i.p., 2 hours): 4.76×10^−11 moles per gram; AEA in the HIPP, THC mean divided by vehicle mean ([5]; adult, 3 mg/kg i.p., 2 hours): 0.87; fold decrease of AEA in the HIPP (reciprocal of THC/vehicle) ([5]; adult, 3 mg/kg i.p., 2 hours): 1.15; magnitude class of change in 2-OG, MID ([5]; adult, THC vs vehicle): 2 down arrows; magnitude class of change in PGE2 and PGF2α, HIPP ([5]; adult, THC vs vehicle): 1 down arrow; magnitude class of change in AEA, THAL [5, 9]: 1 down arrow; magnitude class of change in SEA, THAL [5, 9]: 3 down arrows; magnitude class of change in A-Taur, THAL ([5]; adult, THC vs vehicle, trending (p < 0.1)): 1 up arrow; magnitude class of change in 2-AG, MID ([5]; all 3 age groups, THC vs vehicle): 1 down arrow; brain area with highest levels [8]: HIPP; brain area with highest levels [6]: HIPP; brain area with highest levels [7]: HIPP

Reference: PMC5987162 (Biochimica et biophysica acta, 2018)
